{"source": "PubChem BioAssay (NCI)", "experiment_in_all_cases": "NCI tumour cell line growth inhibition, 48 h", "key": {"[1]": {"system": "SF-539 CNS"}, "[2]": {"system": "LOX IMVI melanoma"}, "[3]": {"system": "SK-MEL-5 melanoma"}, "[4]": {"system": "IGROV1 ovarian"}, "[5]": {"system": "HL-60(TB) leukemia"}, "[6]": {"system": "MDA-MB-435"}, "[7]": {"system": "MOLT-4 leukemia"}, "[8]": {"system": "SK-MEL-28 melanoma"}, "[9]": {"system": "PC-3 prostate"}, "[10]": {"system": "COLO 205 colon"}, "[11]": {"system": "NCI-H522 lung"}, "[12]": {"system": "OVCAR-4 ovarian"}, "[13]": {"system": "UO-31 renal"}, "[14]": {"system": "786-0 renal"}, "[15]": {"system": "OVCAR-8 ovarian"}, "[16]": {"system": "SW-620 colon"}, "[17]": {"system": "SNB-75 CNS"}, "[18]": {"system": "KM12 colon"}, "[19]": {"system": "NCI-H460 lung"}, "[20]": {"system": "SR leukemia"}, "[21]": {"system": "SNB-19 CNS"}, "[22]": {"system": "UACC-62 melanoma"}, "[23]": {"system": "HOP-62 NSCLC"}, "[24]": {"system": "K-562 leukemia"}, "[25]": {"system": "OVCAR-3 ovarian"}, "[26]": {"system": "SK-OV-3 ovarian"}, "[27]": {"system": "T-47D breast"}, "[28]": {"system": "HCT-15 colon"}, "[29]": {"system": "SN12C renal"}, "[30]": {"system": "DU-145 prostate"}, "[31]": {"system": "MCF7 breast"}, "[32]": {"system": "NCI-H226 lung"}, "[33]": {"system": "TK-10 renal"}, "[34]": {"system": "RPMI-8226 leukemia"}, "[35]": {"system": "HCT-116 colon"}, "[36]": {"system": "MDA-MB-231 breast"}, "[37]": {"system": "CCRF-CEM leukemia"}, "[38]": {"system": "U251 CNS"}, "[39]": {"system": "SF-295 CNS"}, "[40]": {"system": "M14 melanoma"}, "[41]": {"system": "OVCAR-5 ovarian"}, "[42]": {"system": "ACHN renal"}, "[43]": {"system": "MALME-3M melanoma"}, "[44]": {"system": "SK-MEL-2 melanoma"}, "[45]": {"system": "NCI/ADR-RES ovarian"}, "[46]": {"system": "UACC-257 melanoma"}, "[47]": {"system": "SF-268 CNS"}, "[48]": {"system": "CAKI-1 renal"}, "[49]": {"system": "NCI-H23 lung"}, "[50]": {"system": "HT29 colon"}}, "note": "Values joined by “and” are separate entries in the source; they are usually repeats but may differ in a detail not shown here. Identical values can stand only once.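 All cell lines were grown in 96-well plates and treated with compound for 48 hours. GI50 = concentration required for 50% inhibition of growth. TGI is the concentration that stops growth completely.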", "data": [{"smiles": "COc1c(OCCCN2CCOCC2)ccc2c3n(c(=NC(=O)c4cnc(N)nc4)nc12)CCN3", "values": [{"measurement": "TGI", "setting": "[1]", "result": "664 nM [middle of 4 runs]"}, {"measurement": "GI50", "setting": "[2]", "result": "64.9 nM [middle of 4 runs]"}, {"measurement": "GI50", "setting": "[3]", "result": "228 nM [middle of 4 runs]"}, {"measurement": "TGI", "setting": "[3]", "result": "1.51 µM [middle of 4 runs]"}, {"measurement": "TGI", "setting": "[4]", "result": "40.3 nM [middle of 4 runs]"}, {"measurement": "TGI", "setting": "[5]", "result": "> 75000", "unit": "nM"}, {"measurement": "GI50", "setting": "[6]", "result": "142 nM [middle of 4 runs]"}, {"measurement": "GI50", "setting": "[7]", "result": "36.3 nM and 40.9 nM and 28.3 nM"}, {"measurement": "TGI", "setting": "[8]", "result": "7660 nM and 810 nM and 1640 nM"}, {"measurement": "TGI", "setting": "[9]", "result": "> 100000", "unit": "nM"}, {"measurement": "GI50", "setting": "[10]", "result": "38.1 nM [middle of 4 runs]"}, {"measurement": "GI50", "setting": "[11]", "result": "138 nM [middle of 4 runs]"}, {"measurement": "GI50", "setting": "[12]", "result": "469 nM and 391 nM and 438 nM"}, {"measurement": "TGI", "setting": "[12]", "result": "> 75000 nM and 10800 nM and 7650 nM"}, {"measurement": "GI50", "setting": "[13]", "result": "22.4 nM and 23.8 nM and 24.5 nM"}, {"measurement": "GI50", "setting": "[14]", "result": "91.3 nM [middle of 4 runs]"}, {"measurement": "GI50", "setting": "[15]", "result": "228 nM [middle of 4 runs]"}, {"measurement": "TGI", "setting": "[15]", "result": "> 100000", "unit": "nM"}, {"measurement": "GI50", "setting": "[16]", "result": "216 nM [middle of 4 runs]"}, {"measurement": "TGI", "setting": "[16]", "result": "> 100000", "unit": "nM"}, {"measurement": "GI50", "setting": "[17]", "result": "7.5 nM and < 12.3 nM and < 10 nM"}, {"measurement": "TGI", "setting": "[17]", "result": "50.4 nM and 33 nM"}, {"measurement": "GI50", "setting": "[18]", "result": "368 nM [middle of 4 runs]"}, {"measurement": "GI50", "setting": "[19]", "result": "39.7 nM [middle of 4 runs]"}, {"measurement": "TGI", "setting": "[19]", "result": "> 100000", "unit": "nM"}, {"measurement": "GI50", "setting": "[20]", "result": "315 nM [middle of 4 runs]"}, {"measurement": "GI50", "setting": "[21]", "result": "297 nM [middle of 4 runs]"}, {"measurement": "TGI", "setting": "[21]", "result": "> 100000", "unit": "nM"}, {"measurement": "GI50", "setting": "[22]", "result": "48.3 nM [middle of 4 runs]"}, {"measurement": "TGI", "setting": "[22]", "result": "464 nM [middle of 4 runs]"}, {"measurement": "GI50", "setting": "[23]", "result": "132 nM [middle of 4 runs]"}, {"measurement": "TGI", "setting": "[23]", "result": "> 100000", "unit": "nM"}, {"measurement": "GI50", "setting": "[24]", "result": "1.68 µM [middle of 4 runs]"}, {"measurement": "TGI", "setting": "[24]", "result": "> 100000", "unit": "nM"}, {"measurement": "GI50", "setting": "[25]", "result": "36.2 nM and 28.3 nM and 126 nM"}, {"measurement": "TGI", "setting": "[25]", "result": "890 nM and 976 nM and 4920 nM"}, {"measurement": "TGI", "setting": "[26]", "result": "67.3 nM and 446 nM and 74.5 nM"}, {"measurement": "GI50", "setting": "[27]", "result": "7.5 nM and 2.58 nM and < 10 nM"}, {"measurement": "TGI", "setting": "[27]", "result": "39.4 nM and 40.8 nM and 30.2 nM"}, {"measurement": "GI50", "setting": "[28]", "result": "59.9 nM [middle of 4 runs]"}, {"measurement": "TGI", "setting": "[28]", "result": "> 100000", "unit": "nM"}, {"measurement": "GI50", "setting": "[29]", "result": "88.5 nM [middle of 4 runs]"}, {"measurement": "TGI", "setting": "[29]", "result": "> 100000", "unit": "nM"}, {"measurement": "TGI", "setting": "[30]", "result": "> 100000", "unit": "nM"}, {"measurement": "TGI", "setting": "[31]", "result": "> 100000", "unit": "nM"}, {"measurement": "GI50", "setting": "[32]", "result": "144 nM [middle of 4 runs]"}, {"measurement": "TGI", "setting": "[32]", "result": "> 100000", "unit": "nM"}, {"measurement": "TGI", "setting": "[33]", "result": "198 nM and 782 nM"}, {"measurement": "GI50", "setting": "[34]", "result": "220 nM and 174 nM and 323 nM"}, {"measurement": "TGI", "setting": "[34]", "result": "2050 nM and > 10000 nM"}, {"measurement": "GI50", "setting": "[35]", "result": "109 nM [middle of 4 runs]"}, {"measurement": "TGI", "setting": "[35]", "result": "> 100000", "unit": "nM"}, {"measurement": "GI50", "setting": "[36]", "result": "339 nM [middle of 4 runs]"}, {"measurement": "GI50", "setting": "[37]", "result": "48.9 nM [middle of 4 runs]"}, {"measurement": "TGI", "setting": "[37]", "result": "> 100000", "unit": "nM"}, {"measurement": "TGI", "setting": "[38]", "result": "> 100000", "unit": "nM"}, {"measurement": "GI50", "setting": "[39]", "result": "74.8 nM [middle of 4 runs]"}, {"measurement": "TGI", "setting": "[39]", "result": "814 nM [middle of 4 runs]"}, {"measurement": "GI50", "setting": "[40]", "result": "118 nM [middle of 4 runs]"}, {"measurement": "GI50", "setting": "[41]", "result": "31.2 nM [middle of 4 runs]"}, {"measurement": "TGI", "setting": "[41]", "result": "> 100000", "unit": "nM"}, {"measurement": "GI50", "setting": "[42]", "result": "72.3 nM [middle of 4 runs]"}, {"measurement": "TGI", "setting": "[42]", "result": "> 100000", "unit": "nM"}, {"measurement": "TGI", "setting": "[43]", "result": "448 nM [middle of 4 runs]"}, {"measurement": "GI50", "setting": "[44]", "result": "197 nM [middle of 4 runs]"}, {"measurement": "GI50", "setting": "[45]", "result": "428 nM [middle of 4 runs]"}, {"measurement": "TGI", "setting": "[45]", "result": "> 100000", "unit": "nM"}, {"measurement": "GI50", "setting": "[46]", "result": "77.4 nM [middle of 4 runs]"}, {"measurement": "TGI", "setting": "[47]", "result": "> 100000", "unit": "nM"}, {"measurement": "TGI", "setting": "[48]", "result": "3380 nM and > 10000 nM and 2400 nM"}, {"measurement": "GI50", "setting": "[49]", "result": "398 nM [middle of 4 runs]"}, {"measurement": "TGI", "setting": "[49]", "result": "> 100000", "unit": "nM"}, {"measurement": "GI50", "setting": "[50]", "result": "17.7 nM and 24.9 nM and 10.9 nM"}, {"measurement": "TGI", "setting": "[50]", "result": "> 100000", "unit": "nM"}]}]}
